Measurements published in PubChem BioAssay AID328 (DTP/NCI, 2004).
Where “and” joins values, the source holds several entries; their conditions need not be identical. Identical values can stand only once. Toxic doses and inconclusive results are not listed. Rule for the calls: active = survival T/C of 150% or more; inactive = T/C below 125% in these data.

Tested on: BDF1 mice, P388 leukemia ip, median survival T/C
Assay: NCI In Vivo Anticancer Drug Screen. Data for tumor model P388 Leukemia (intraperitoneal) in B6D2F1 (BDF1) mice
Settings: endpoint: median survival time, higher = longer survival
Summary of the method: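 Mice carrying the transplantable tumour receive compound or vehicle. Survival is followed in each arm, and the treated measure is divided by the vehicle measure.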

[1] = dose: 50.0 mg/kg/injection, schedule: Q01DX009 (ip), vehicle: saline
[2] = dose: 100.0 mg/kg/injection, schedule: Q01DX009 (ip), vehicle: saline
[3] = dose: 200.0 mg/kg/injection, schedule: Q01DX009 (ip), vehicle: saline
[4] = dose: 400.0 mg/kg/injection, schedule: Q01DX009 (ip), vehicle: saline
[5] = dose: 12.5 mg/kg/injection, schedule: Q01DX009 (ip), vehicle: saline with Tween-80
[6] = dose: 25.0 mg/kg/injection, schedule: Q01DX009 (ip), vehicle: saline with Tween-80
[7] = dose: 50.0 mg/kg/injection, schedule: Q01DX009 (ip), vehicle: saline with Tween-80
[8] = dose: 100.0 mg/kg/injection, schedule: Q04DX003 (ip), vehicle: saline with Tween-80
[9] = dose: 200.0 mg/kg/injection, schedule: Q04DX003 (ip), vehicle: saline with Tween-80
[10] = dose: 400.0 mg/kg/injection, schedule: Q04DX003 (ip), vehicle: saline with Tween-80
[11] = dose: 50.0 mg/kg/injection, schedule: Q01DX009 (ip), vehicle: Klucel (hydroxypropylcellulose) (HPC)
[12] = dose: 100.0 mg/kg/injection, schedule: Q01DX009 (ip), vehicle: Klucel (hydroxypropylcellulose) (HPC)
[13] = dose: 200.0 mg/kg/injection, schedule: Q01DX009 (ip), vehicle: Klucel (hydroxypropylcellulose) (HPC)
[14] = dose: 400.0 mg/kg/injection, schedule: Q01DX009 (ip), vehicle: Klucel (hydroxypropylcellulose) (HPC)
[15] = dose: 100.0 mg/kg/injection, schedule: Q04DX003 (ip), vehicle: Klucel (hydroxypropylcellulose) (HPC)
[16] = dose: 200.0 mg/kg/injection, schedule: Q04DX003 (ip), vehicle: Klucel (hydroxypropylcellulose) (HPC)
[17] = dose: 100.0 mg/kg/injection, schedule: Q04DX003 (ip), vehicle: saline
[18] = dose: 200.0 mg/kg/injection, schedule: Q04DX003 (ip), vehicle: saline
[19] = dose: 50.0 mg/kg/injection, schedule: Q04DX003 (ip), vehicle: saline with Tween-80
[20] = dose: 100.0 mg/kg/injection, schedule: Q01DX009 (ip), vehicle: saline with Tween-80
[21] = dose: 200.0 mg/kg/injection, schedule: Q01DX009 (ip), vehicle: saline with Tween-80
[22] = dose: 400.0 mg/kg/injection, schedule: Q04DX003 (ip), vehicle: Klucel (hydroxypropylcellulose) (HPC)
[23] = dose: 100.0 mg/kg/injection, schedule: Q01DX001 (ip), vehicle: Klucel (hydroxypropylcellulose) (HPC)
[24] = dose: 200.0 mg/kg/injection, schedule: Q01DX001 (ip), vehicle: Klucel (hydroxypropylcellulose) (HPC)
[25] = dose: 400.0 mg/kg/injection, schedule: Q01DX001 (ip), vehicle: Klucel (hydroxypropylcellulose) (HPC)

Measured: T/C

CCOC(=O)C(NC=O)C(=O)OCC
inactive: [1] 105 % of control | [2] 94 % of control | [3] 93 % of control | [4] 93 % of control

O=C(NC1CCCC2C(NC(=O)c3ccccc3)CCCC12)c1ccccc1 (configuration not stated)
inactive: dose: 66.0 mg/kg/injection, schedule: Q01DX009 (ip), vehicle: saline 120 % of control | dose: 100.0 mg/kg/injection, schedule: Q01DX001 (ip), vehicle: saline 104 % of control | [2] 100 % of control and 109 % of control | dose: 150.0 mg/kg/injection, schedule: Q01DX009 (ip), vehicle: saline 100 % of control and 109 % of control | dose: 200.0 mg/kg/injection, schedule: Q01DX001 (ip), vehicle: saline 95 % of control | [3] 115 % of control | dose: 400.0 mg/kg/injection, schedule: Q01DX001 (ip), vehicle: saline 104 % of control | [4] 100 % of control

COc1ccc(CN2COc3c(cc(C)c4cccnc34)C2)cc1
inactive: [5] 90 % of control | [6] 94 % of control | [7] 92 % of control

Cc1cc(OC(=O)Nc2cccc(Cl)c2C)ccc1Cl
inactive: [8] 104 % of control | [9] 104 % of control | [10] 109 % of control

CC(=O)O[C@]1(C(C)=O)CC[C@H]2[C@@H]3C[C@H](C)C4=CC(=O)CC[C@]4(C)[C@H]3CC[C@@]21C
inactive: [11] 103 % of control | [12] 111 % of control | dose: 100.0 mg/kg/injection, schedule: Q04DX003 (ip), vehicle: other 110 % of control | [13] 94 % of control and 95 % of control | dose: 200.0 mg/kg/injection, schedule: Q04DX003 (ip), vehicle: other 100 % of control | [14] 87 % of control | dose: 400.0 mg/kg/injection, schedule: Q04DX003 (ip), vehicle: other 115 % of control

Cc1c(Cc2ccccc2)[n+](=O)c2ccccc2n1[O-]
inactive: [15] 100 % of control | [16] 105 % of control

O=COCC(O)COC=O
inactive: dose: 50.0 mg/kg/injection, schedule: Q04DX003 (ip), vehicle: saline 103 % of control | [17] 112 % of control | [18] 112 % of control

CCOC(=O)CSc1nc2nc(Cl)c(Cl)nc2[nH]1
inactive: dose: 3.12 mg/kg/injection, schedule: Q04DX003 (ip), vehicle: saline with Tween-80 112 % of control | dose: 6.25 mg/kg/injection, schedule: Q04DX003 (ip), vehicle: saline with Tween-80 102 % of control | dose: 12.5 mg/kg/injection, schedule: Q04DX003 (ip), vehicle: saline with Tween-80 100 % of control | [6] 88 % of control | dose: 25.0 mg/kg/injection, schedule: Q04DX003 (ip), vehicle: saline with Tween-80 102 % of control | [7] 106 % of control | [19] 95 % of control and 102 % of control | [20] 92 % of control | [8] 103 % of control | [21] 100 % of control | [9] 97 % of control | dose: 400.0 mg/kg/injection, schedule: Q01DX009 (ip), vehicle: saline with Tween-80 106 % of control | [10] 108 % of control

CN(C)/N=N/c1[nH]ncc1C(N)=O
inactive: [11] 95 % of control | [12] 104 % of control | dose: 100.0 mg/kg/injection, schedule: Q04DX003 (ip), vehicle: alcohol 118 % of control | dose: 200.0 mg/kg/injection, schedule: Q04DX003 (ip), vehicle: alcohol 113 % of control

Nc1nc(C=O)c(CCc2ccccc2)c(=O)[nH]1
inactive: [19] 113 % of control

OC(CN1CCCCC1)c1cc(-c2ccccc2)no1 (configuration not stated)
inactive: dose: 25.0 mg/kg/injection, schedule: Q01DX009 (ip), vehicle: saline 100 % of control | [7] 100 % of control | [1] 105 % of control | [20] 100 % of control | [2] 107 % of control | [21] 105 % of control | [3] 88 % of control

OCC(Br)(Br)Br
inactive: dose: 100.0 mg/kg/injection, schedule: Q01DX009 (ip), vehicle: other 95 % of control | dose: 200.0 mg/kg/injection, schedule: Q01DX009 (ip), vehicle: other 95 % of control

COc1cccc2c1C(=O)CC2
inactive: dose: 25.0 mg/kg/injection, schedule: Q01DX009 (ip), vehicle: Klucel (hydroxypropylcellulose) (HPC) 100 % of control | [11] 100 % of control | dose: 75.0 mg/kg/injection, schedule: Q04DX003 (ip), vehicle: Klucel (hydroxypropylcellulose) (HPC) 100 % of control | [12] 96 % of control | dose: 150.0 mg/kg/injection, schedule: Q04DX003 (ip), vehicle: Klucel (hydroxypropylcellulose) (HPC) 95 % of control

COC(=O)CNC(=O)C(CSCc1ccccc1)NC(=O)OCc1ccccc1 (configuration not stated)
inactive: [15] 95 % of control | [16] 100 % of control | [22] 90 % of control

O=[N+]([O-])c1ccc(N=Cc2ccc3c(c2)OCO3)cc1
inactive: [23] 100 % of control | [24] 95 % of control | [25] 95 % of control

C1CN1P1(N2CC2)=NP(N2CC2)(N2CC2)=NP(N2CC2)(N2CC2)=NP(N2CC2)(N2CC2)=N1
inactive: dose: 0.27 mg/kg/injection, schedule: Q01DX009 (ip), vehicle: saline 116 % of control | dose: 0.4 mg/kg/injection, schedule: Q01DX009 (ip), vehicle: saline 112 % of control | dose: 0.63 mg/kg/injection, schedule: Q04DX003 (ip), vehicle: saline 113 % of control | dose: 13.2 mg/kg/injection, schedule: Q04DX003 (ip), vehicle: saline 100 % of control | dose: 40.0 mg/kg/injection, schedule: Q04DX003 (ip), vehicle: saline 105 % of control
active: dose: 0.62 mg/kg/injection, schedule: Q01DX009 (ip), vehicle: saline 172 % of control | dose: 1.25 mg/kg/injection, schedule: Q01DX009 (ip), vehicle: saline 159 % of control | dose: 1.9 mg/kg/injection, schedule: Q04DX003 (ip), vehicle: saline 154 % of control | dose: 2.5 mg/kg/injection, schedule: Q01DX009 (ip), vehicle: saline 200 % of control | dose: 2.5 mg/kg/injection, schedule: Q04DX003 (ip), vehicle: saline 166 % of control | dose: 2.9 mg/kg/injection, schedule: Q04DX003 (ip), vehicle: saline 168 % of control | dose: 4.4 mg/kg/injection, schedule: Q04DX003 (ip), vehicle: saline 186 % of control | dose: 5.0 mg/kg/injection, schedule: Q04DX003 (ip), vehicle: saline 219 % of control | dose: 6.6 mg/kg/injection, schedule: Q01DX009 (ip), vehicle: saline 240 % of control | dose: 10.0 mg/kg/injection, schedule: Q04DX003 (ip), vehicle: saline 225 % of control and 223 % of control | dose: 13.3 mg/kg/injection, schedule: Q04DX003 (ip), vehicle: saline 223 % of control | dose: 15.0 mg/kg/injection, schedule: Q01DX009 (ip), vehicle: saline 155 % of control | dose: 30.0 mg/kg/injection, schedule: Q04DX003 (ip), vehicle: saline 285 % of control

COc1cc2cc[n+](C)c(Cc3ccccc3)c2cc1OC
inactive: [5] 100 % of control | [19] 113 % of control | [8] 90 % of control
active: [11] 159 % of control

COc1ccc(-c2cc(-c3ccc(Cl)cc3)no2)cc1
inactive: [12] 90 % of control | [15] 100 % of control | [13] 90 % of control | [16] 100 % of control | [14] 100 % of control | [22] 100 % of control

CCOC(=O)/C(=C\c1ccc2c(c1)OCO2)NC(=O)c1ccccc1
inactive: [23] 104 % of control | [17] 112 % of control | [24] 100 % of control | [18] 95 % of control | [25] 100 % of control | dose: 400.0 mg/kg/injection, schedule: Q04DX003 (ip), vehicle: saline 95 % of control
